Data on 81 compounds can be found in the RepoRT retention time repository.

The data set can be described thus: HILIC, Waters ACQUITY UPLC BEH Amide, 100 × 2.1 mm, 1.7 µm; A: water + 0.125% formic acid + 10 mM ammonium formate; B: 5% water + 95% acetonitrile + 0.125% formic acid + 10 mM ammonium formate; gradient (min/%B) 0/100 2/100 7.7/70 9.5/40 10.25/30 12.75/100 17/100. Conditions: stereoisomer not certain.
As to `CC(c1ncncc1F)C(O)(Cn1cncn1)c1ccc(F)cc1F` (stereo unspecified) [Voriconazole], the LC retention time came to 1.02 min.

For the compound `CC(C)C(NC(=O)C(N)CCCCN)C(=O)O` (stereo unspecified) [Lys-Val], the LC retention time worked out at 9.38 min.

`CN=C1CN(O)C(c2ccccc2)=c2cc(Cl)ccc2=N1` [Chlordiazepoxide]: the LC retention time was determined as 1.35 min.

With `C=C1CC2C(CCC3(C)C(=O)CCC23)C2(C)C=CC(=O)C=C12` (stereo unspecified) [Exemestane], the LC retention time came out at 0.98 min.

On to `Cc1cccc(Nc2ccncc2S(=O)(=O)NC(=O)NC(C)C)c1` [Torasemide], for which the LC retention time was determined as 1.45 min.

Turning to `CC(C)OC(=O)CCCC=CCC1C(O)CC(O)C1CCC(O)CCc1ccccc1` (stereo unspecified) [Latanoprost], the LC retention time turned out to be 1.06 min.

In the case of `CN1CCCC(n2nc(Cc3ccc(Cl)cc3)c3ccccc3c2=O)CC1` (stereo unspecified) [Azelastine], the LC retention time came out at 2.95 min.

Take `CC(C)=CCNc1ncnc2nc[nH]c12` [Isopentenyladenine]: the LC retention time came to 1.81 min.

With `O=C(NCCN1CCOCC1)c1ccc(Cl)cc1` [Moclobemide], the LC retention time stood at 2.03 min.

Consider `O=C(C=Cc1ccccc1O)c1ccccc1` [2-Hydroxychalcone], for which the LC retention time was determined as 1.01 min.

As for `CC(C)(C)NC(=O)C1CCC2C3CCC4NC(=O)C=CC4(C)C3CCC12C` (stereo unspecified) [Finasteride], the LC retention time was 1.17 min.

`CC(=O)CCCCn1c(=O)c2c(ncn2C)n(C)c1=O` [Pentoxifylline]: the LC retention time was 1.09 min.

`CN1CCCC1c1cccnc1` (stereo unspecified) [Nicotine]: the LC retention time turned out to be 5.34 min.

In the case of `CN1C2CCC1C(C(=O)O)C(OC(=O)c1ccccc1)C2` (stereo unspecified) [Benzoylecgonine], the LC retention time was 3.63 min.

With `Cc1cc(O)cc(=O)o1` [4-Hydroxy-6-methyl-2-pyrone], the LC retention time worked out at 1.47 min.

As for `COc1cc(-c2[o+]c3cc(O)cc(O)c3cc2OC2OC(CO)C(O)C(O)C2O)cc(O)c1O` (stereo unspecified) [Petunidin-3-glucoside], the LC retention time came out at 4.47 min.

On to `Nc1nc2c(ncn2CCC(CO)CO)c(=O)[nH]1` [Penciclovir], for which the LC retention time amounted to 6.71 min.

Regarding `Nc1nc2c(ncn2C2CC(O)C(CO)O2)c(=O)[nH]1` (stereo unspecified) [2'-Deoxyguanosine], the LC retention time amounted to 6.4 min.

`C[N+]1(C)CCCC1C(=O)O` (stereo unspecified) [Stachydrine]: the LC retention time worked out at 7.1 min.

`O=C(O)C(O)Cc1c[nH]c2ccccc12` (stereo unspecified) [Indolelactic acid]: the LC retention time was 2.25 min.

Regarding `Cn1c(NCCN(CCO)CCCc2ccc([N+](=O)[O-])cc2)cc(=O)n(C)c1=O` [Nifekalant], the LC retention time amounted to 3.21 min.

For `CC(=O)Oc1ccccc1C(=O)Nc1ncc([N+](=O)[O-])s1` [Nitazoxanide], the LC retention time was found to be 1 min.

Consider `NC(=O)NC(CCC(=O)O)C(=O)O` (stereo unspecified) [Ureidoglutaric acid], for which the LC retention time stood at 7.8 min.

Take `COc1c2occc2cc2ccc(=O)oc12` [Xanthotoxin]: the LC retention time came to 1.04 min.

Regarding `O=C1CCC(=O)CC1` [1,4-Cyclohexanedione], the LC retention time came out at 1.15 min.

With `O=C1CCNC(=O)N1` [5,6-Dihydrouracil], the LC retention time was determined as 1.77 min.

As to `CN(C)CCc1c[nH]c2ccc(Cn3cncn3)cc12` [Rizatriptan], the LC retention time was found to be 5.11 min.

For `O=P(O)(O)OCC1OC(OC2OC(CO)C(O)C(O)C2O)C(O)C(O)C1O` (stereo unspecified) [Trehalose-6-phosphate], the LC retention time was 9.72 min.

Regarding `COc1ccccc1N1CCN(CC(O)COc2cccc3ccccc23)CC1` (stereo unspecified) [Naftopidil], the LC retention time stood at 1.99 min.

On to `O=[N+]([O-])c1cc[n+]([O-])c2ccccc12` [4-Nitroquinoline-N-oxide], for which the LC retention time is 1.14 min.

Consider `NC(=O)CCC(NC(=O)C(N)CCC(=O)O)C(=O)O` (stereo unspecified) [Glu-Gln], for which the LC retention time stood at 9.6 min.

As for `O=C1Nc2ccc(Cl)cc2C(C#CC2CC2)(C(F)(F)F)O1` (stereo unspecified) [Efavirenz], the LC retention time worked out at 0.98 min.

Consider `OCC(O)C(O)C(OC1OC(CO)C(O)C(O)C1O)C(O)CO` (stereo unspecified) [Lactitol], for which the LC retention time was determined as 8.99 min.

`CC(=O)NC(Cc1c[nH]c2ccccc12)C(=O)O` (stereo unspecified) [N-Acetyltryptophan]: the LC retention time came out at 2.81 min.

For the compound `CC(O)CC(=O)OC(CC(=O)[O-])C[N+](C)(C)C` (stereo unspecified) [3-Hydroxybutyrylcarnitine], the LC retention time stood at 7.62 min.

In the case of `c1ccc(C2CN3CCSC3=N2)cc1` (stereo unspecified) [Levamisole], the LC retention time was 2.95 min.

On to `COc1cc2c(cc1OC)C13CCN4CC5=CCOC6CC(=O)N2C1C6C5CC43` (stereo unspecified) [Brucine], for which the LC retention time came to 4.57 min.

Regarding `COC(=O)Nc1nc2ccc(C(=O)c3ccc(F)cc3)cc2[nH]1` [Flubendazole], the LC retention time turned out to be 1.16 min.

Consider `Cn1c(=O)[nH]c2[nH]c(=O)[nH]c2c1=O` [1-Methyluric acid], for which the LC retention time was determined as 2.18 min.

As for `CCC(=O)Nc1ccc(Cl)c(Cl)c1` [Propanil], the LC retention time was 1.08 min.

For `COC(=O)c1cc(O)c(O)c(O)c1` [Methylgallate], the LC retention time is 1.43 min.

With `O=C(O)C1CCC(C(=O)O)CC1` (stereo unspecified) [1,4-Cyclohexanedicarboxylic acid], the LC retention time turned out to be 1.56 min.

With `CN1CCN(CCCN2c3ccccc3Sc3ccc(Cl)cc32)CC1` [Prochlorperazine], the LC retention time amounted to 2.56 min.

On to `CCC(=O)NCC(=O)O` [2-Propanamidoacetic acid], for which the LC retention time is 5.37 min.

In the case of `CC(N)Cc1ccccc1` (stereo unspecified) [Amphetamine], the LC retention time came to 4.6 min.

Regarding `O=C(CCc1ccc(O)cc1)c1c(O)cc(O)cc1O` [Phloretin], the LC retention time was determined as 1.5 min.

Take `Nc1ncnc2nc[nH]c12` [Adenine]: the LC retention time was found to be 4.71 min.

`O=C(OC1C(Oc2ccccc2COC(=O)C2(O)C=CCCC2=O)OC(CO)C(O)C1O)c1ccccc1` (stereo unspecified) [Tremulacin]: the LC retention time came out at 1.51 min.

Consider `CC1CNc2c(cccc2S(=O)(=O)NC(CCCN=C(N)N)C(=O)N2CCC(C)CC2C(=O)O)C1` (stereo unspecified) [Argatroban], for which the LC retention time was 5.45 min.

`NCCCCC(NC(=O)C(N)CCC(=O)O)C(=O)O` (stereo unspecified) [Glu-Lys]: the LC retention time turned out to be 9.9 min.

On to `CC(c1cc2ccccc2s1)N(O)C(N)=O` (stereo unspecified) [Zileuton], for which the LC retention time is 1.23 min.

Consider `COC(=O)N1CCN(C(=O)Cc2ccc(Cl)c(Cl)c2)C(CN2CCCC2)C1` (stereo unspecified), for which the LC retention time was found to be 2.56 min.

As to `CC(C)CCCC(C)C1CCC2C3CC=C4CC(OC(=O)NCCN(C)C)CCC4(C)C3CCC12C` (stereo not drawn) [3-beta-Cholest-5-en-3-yl [2-(dimethylamino)ethyl]carbamate], the LC retention time was 2.34 min.

As for `COC1=C(OC)C(=O)C(CCCCCCCCCCO)=C(C)C1=O` [Idebenone], the LC retention time was found to be 0.96 min.

For the compound `CC(=O)OCC(N)C(=O)O` (stereo unspecified) [O-Acetylserine], the LC retention time stood at 7.67 min.

Consider `CN(C)C=O` [N,N-Dimethylformamide], for which the LC retention time was 1.29 min.

Turning to `O=C(O)CNC(=O)c1ccco1` [N-(2-Furoyl)glycine], the LC retention time is 4.01 min.

Regarding `CCOC(=O)C(C)Oc1ccc(Oc2nc3ccc(Cl)cc3o2)cc1` (stereo unspecified) [Fenoxaprop-P-ethyl], the LC retention time worked out at 1.01 min.

Consider `c1cncc(C2CCCN2)c1` (stereo unspecified) [Nornicotine], for which the LC retention time is 5.98 min.

Consider `COc1cc(N)c(Cl)cc1C(=O)NC1CCN(CCCOc2ccc(F)cc2)CC1OC` (stereo unspecified) [Cisapride], for which the LC retention time worked out at 2.28 min.

For `CC(C)CC(=O)OC(CC(=O)[O-])C[N+](C)(C)C` [Isovaleryl-L-carnitine], the LC retention time stood at 5.36 min.

As to `COC1C(CO)OC(n2cnc3c(=O)[nH]c(N)nc32)C1O` (stereo unspecified) [3'-O-Methylguanosine], the LC retention time was found to be 5.8 min.

Turning to `NC(N)=NCCCC(NC(=O)C(N)CCC(=O)O)C(=O)O` (stereo unspecified) [Glu-Arg], the LC retention time was 9.9 min.

On to `CN1CCCC1C(=O)O` (stereo unspecified) [N-Methylproline], for which the LC retention time amounted to 7.11 min.

Turning to `C[C@](N)(Cc1cnc[nH]1)C(=O)O` [alpha-Methylhistidine], the LC retention time worked out at 8.68 min.

In the case of `CC(N=C(NC#N)Nc1ccncc1)C(C)(C)C` (stereo unspecified) [Pinacidil], the LC retention time was 1.49 min.

Consider `CN=C(N)NCCCC(N)C(=O)O` (stereo unspecified) [Targinine], for which the LC retention time worked out at 9.22 min.

For the compound `NCC(=O)c1ccccc1` [2-Aminoacetophenone], the LC retention time came to 1.08 min.

With `CC[N+](C)(CC)CCOC(=O)C(O)(c1ccccc1)C1CCCCC1` (stereo unspecified) [Oxyphenonium], the LC retention time came out at 2.01 min.

Regarding `C[N+](C)(C)C(Cc1c[nH]c(=S)[nH]1)C(=O)[O-]` (stereo unspecified) [Ergothioneine], the LC retention time is 7.74 min.

Consider `Cn1c(=O)c2c(ncn2C)n(C)c1=O` [Caffeine], for which the LC retention time worked out at 1.21 min.

Consider `NC(CS(=O)(=O)O)C(=O)O` (stereo unspecified) [Cysteic acid], for which the LC retention time is 8.92 min.

As to `CC(C)C(NC(=O)C(N)CCCN=C(N)N)C(=O)O` (stereo unspecified) [Arg-Val], the LC retention time was 9.3 min.

Take `CCCCCC=CCC=CCC=CCC=CCCCC(=O)NCCc1ccc(O)c(O)c1` [Arachidonyl dopamine]: the LC retention time was found to be 1.14 min.

For `Cn1cc(C2OC(CO)C(O)C2O)c(=O)[nH]c1=O` (stereo unspecified) [1-Methylpseudouridine], the LC retention time turned out to be 4.99 min.

Turning to `CN1C2CCCC1CC(NC(=O)c1nn(C)c3ccccc13)C2` (stereo unspecified) [Granisetron], the LC retention time stood at 4.12 min.

As for `O=C(O)CCc1nc(-c2ccccc2)c(-c2ccccc2)o1` [Oxaprozin], the LC retention time is 1.11 min.

`CSCC1OC(n2cnc3c(N)ncnc32)C(O)C1O` (stereo unspecified) [5'-Methylthioadenosine]: the LC retention time is 2.49 min.

`O=C(O)C1CSCN1` (stereo unspecified) [Thiazolidine-4-carboxylic acid]: the LC retention time worked out at 6.92 min.

Take `O=c1[nH]cnc2c1ncn2C1CCC(CO)O1` (stereo unspecified) [2',3'-Dideoxyinosine]: the LC retention time stood at 3.44 min.

`CC1(C)SC2C(N=CN3CCCCCC3)C(=O)N2C1C(=O)O` (stereo unspecified) [Mecillinam]: the LC retention time worked out at 4.28 min.
